Laboratory results taken from patent US20130011870A1, “Method For Assaying Diseases Characterized By Dyslipidemia” (priority 2010, published 2013).

Tested on: serine palmitoyltransferase (SPT) in SPTLC3 overexpressing HEK293 cells
Assay: In vitro SPT activity with various acyl-CoA substrates (Example 1, FIG. 3)
Format: biochemical
Conditions: acyl-CoA 50 μM; activity with palmitoyl-CoA defined as 100%
Procedure: FIG. 3 In vitro SPT activity with various acyl-CoA substrates (C12-CoA, C14-CoA, C16-CoA and C18:1-CoA) in control, SPTLC1, SPTLC2 and SPTLC3 overexpressing HEK293 cells. […] (For comparison the activity with palmitoyl-CoA is defined as 100%.)
All acyl-CoAs were used at the same concentration (50 μM).

SMILES | SPT activity with the acyl-CoA substrate in SPTLC3 overexpressing cells compared with control, SPTLC1 and SPTLC2 cells
CCCCCCCCCCCC(=O)SCCNC(=O)CCNC(=O)[C@H](O)C(C)(C)COP(=O)(O)OP(=O)(O)OC[C@H]1O[C@@H](n2cnc3c(N)ncnc32)[C@H](O)[C@@H]1OP(=O)(O)O [lauryl-CoA] | significantly higher activity
CCCCCCCC/C=C\CCCCCCCC(=O)SCCNC(=O)CCNC(=O)[C@H](O)C(C)(C)COP(=O)(O)OP(=O)(O)OC[C@H]1O[C@@H](n2cnc3c(N)ncnc32)[C@H](O)[C@@H]1OP(=O)(O)O [oleoyl-CoA] | comparable for all cell lines
CCCCCCCCCCCCCCCCCC(=O)SCCNC(=O)CCNC(=O)[C@H](O)C(C)(C)COP(=O)(O)OP(=O)(O)OC[C@H]1O[C@@H](n2cnc3c(N)ncnc32)[C@H](O)[C@@H]1OP(=O)(O)O [stearoyl-CoA] | comparable for all cell lines
